Test system: Salmonella typhimurium
Assay: Bacterial proliferation assay (inhibition halo on agar plates)
Type: cell-based
Details: before vs after passage through the ionic therapeutic contact lenses; 2×10^9/mL bacteria on agar-coated plates; 24 hours; FIG. 4
Method: The influence of lens interaction on the antibacterial effect of chloramphenicol was tested with a bacterial challenge using Salmonella typhimurium seeding 2×10^9/mL bacteria on agar-coated plates. An antibiotic disk was inserted in the middle of the plate to verify the inhibition halo around the dish after 24 hours. Both the chloramphenicol eye drops and the liquid suspending the therapeutic lenses for storage were tested. The antibacterial capacity of chloramphenicol was comparatively tested before and after the passage through the ionic therapeutic contact lenses according to the invention. The diameter of the clear halo around the chloramphenicol depot area (central white spot) was not different.

O=C(N[C@H](CO)[C@H](O)c1ccc([N+](=O)[O-])cc1)C(Cl)Cl [chloramphenicol]
diameter of the clear halo around the chloramphenicol depot area: not different
